The test system of data set [1] is RD. The data set can be described thus: Cytotoxicity against Homo sapiens (human) RD cells assessed as cell viability at 10^-4 M after 48 hr by trypan blue exclusion assay relative to control. It is filed as functional. Conditions: read-out: Activity.
The nature of data set [2]: Cytotoxicity against Homo sapiens (human) FL cells assessed as cell viability at 10^-4 M after 24 hr by trypan blue exclusion assay relative to control. Conditions: read-out: Activity. The data set is classed as cell-based.
Data set [3] relates to RD. The data set can be described thus: Cytotoxicity against Homo sapiens (human) RD cells assessed as cell viability at 10^-4 M after 24 hr by trypan blue exclusion assay relative to control. Conditions: read-out: Activity. The data set is classed as functional.
For data set [4], the system named is A2058. The experiment in a line: Cytotoxicity against Homo sapiens (human) A2058 cells assessed as cell viability at 10^-4 M after 72 hr by trypan blue exclusion assay relative to control. The data set is classed as functional. Conditions: A2058, 72 h, read-out: Activity.
For data set [5], the system named is A2058. The experiment in a line: Cytotoxicity against Homo sapiens (human) A2058 cells assessed as cell viability at 10^-4 M after 24 hr by trypan blue exclusion assay relative to control. The data set is classed as functional. Conditions: A2058, 24 h, read-out: Activity.
Data set [6] can be described thus: Cytotoxicity against Homo sapiens (human) FL cells assessed as cell viability at 10^-4 M after 96 hr by trypan blue exclusion assay relative to control. The data set is classed as cell-based. Conditions: read-out: Activity.
In data set [7] the test system is A2058. The experiment in a line: Cytotoxicity against Homo sapiens (human) A2058 cells assessed as cell viability at 10^-4 M after 48 hr by trypan blue exclusion assay relative to control. It is filed as functional. Conditions: A2058, 48 h, read-out: Activity.
Data set [8] relates to RD. The data set can be described thus: Cytotoxicity against Homo sapiens (human) RD cells assessed as cell viability at 10^-4 M after 72 hr by trypan blue exclusion assay relative to control. The data set is classed as functional. Conditions: read-out: Activity.
The test system of data set [9] is RD. The experiment in a line: Cytotoxicity against Homo sapiens (human) RD cells assessed as cell viability at 10^-4 M after 96 hr by trypan blue exclusion assay relative to control. The data set is classed as functional. Conditions: read-out: Activity.
In data set [10] the test system is A2058. The experiment in a line: Cytotoxicity against Homo sapiens (human) A2058 cells assessed as cell viability at 10^-4 M after 96 hr by trypan blue exclusion assay relative to control. The data set is classed as functional. Conditions: A2058, 96 h, read-out: Activity.
Data set [11] can be described thus: Cytotoxicity against Homo sapiens (human) FL cells assessed as cell viability at 10^-4 M after 48 hr by trypan blue exclusion assay relative to control. It is filed as cell-based. Conditions: read-out: Activity.
Data set [12] in a line: Cytotoxicity against Homo sapiens (human) FL cells assessed as cell viability at 10^-4 M after 72 hr by trypan blue exclusion assay relative to control. It is filed as cell-based. Conditions: read-out: Activity.

As for `CCOC(=O)N1c2ccccc2N(C(=O)OCC)C1CC(=O)/C=C/c1ccccc1`, the viability at 100 µM with RD [1] was 59.1%; with RD [3] it was 45.5%; in the data set with A2058 [4], 8.14%; in the data set on A2058 [5], 14.7%; in the data set on A2058 [7], 12.1%; in the data set on RD [8], 52.9%. Moreover, the values for the viability at 100 µM in the data set on RD [9] and in the data set on A2058 [10] were 39.4% and 7.14%, respectively. Besides, the viability at 24 h, 100 µM in [2] was found to be 111%. The viability at 96 h, 100 µM in data set [6] was 81.1%. The viability at 48 h, 100 µM in data set [11] amounted to 77.9%. Moreover, the viability at 72 h, 100 µM in data set [12] came to 83.6%.

As to `CCOC(=O)N1c2cc(C)c(C)cc2N(C(=O)OCC)C1CC(=O)/C=C/c1ccccc1`, the viability at 100 µM in the data set with RD [1] amounted to 70.5%; in the data set with RD [3], 86.4%; with A2058 [4], 80.2%; in the data set with A2058 [5], 82.3%; in the data set on A2058 [7], 86.4%; with RD [8], 81.4%. Also, the viability at 100 µM in the data set on RD [9] was found to be 79.8%; in the data set with A2058 [10], 75.5%. In addition, the viability at 24 h, 100 µM in data set [2] was 94.6%. Moreover, in data set [6], the viability at 96 h, 100 µM amounted to 74.2%. Besides, in data set [11], the viability at 48 h, 100 µM was 67.5%. For the same compound, the viability at 72 h, 100 µM in [12] worked out at 60%.

In the case of `CCOC(=O)N1c2cc(C)c(C)cc2N(C(=O)OCC)C1CC(=O)c1ccccc1`, the viability at 100 µM worked out at 52.3% in the data set on RD [1]; 45.5% in the data set with RD [3]; 50% in the data set with A2058 [4]; 97.1% in the data set with A2058 [5]; 83.3% in the data set on A2058 [7]; 47.1% in the data set on RD [8]. Also, the viability at 100 µM in the data set on RD [9] worked out at 32.1%; in the data set with A2058 [10] it was 31.6%. The viability at 24 h, 100 µM in data set [2] turned out to be 67.6%. The viability at 96 h, 100 µM in [6] was 62.1%. For the same compound, in data set [11], the viability at 48 h, 100 µM stood at 46.8%. Further, the viability at 72 h, 100 µM in data set [12] came to 60%.

On to `CCOC(=O)N1c2ccccc2N(C(=O)OCC)C1CC(=O)Cc1ccccc1`, for which the viability at 100 µM with RD [1] was found to be 31.8%; in the data set with RD [3] it was 63.6%; in the data set on A2058 [4], 11.6%; with A2058 [5], 41.2%; in the data set with A2058 [7], 21.2%; in the data set on RD [8], 14.3%. The results for the viability at 100 µM with RD [9] and in the data set with A2058 [10] were 11.9% and 6.12%, respectively. The viability at 24 h, 100 µM in data set [2] amounted to 27%. Further, the viability at 96 h, 100 µM in [6] worked out at 3.03%. The viability at 48 h, 100 µM in data set [11] turned out to be 10.4%. Further, the viability at 72 h, 100 µM in data set [12] was 5.45%.

Turning to `CCOC(=O)N1c2ccccc2N(C(=O)OCC)C1CC(=O)c1ccccc1`, the viability at 100 µM amounted to 93.2% with RD [1]; 86.4% with RD [3]; 53.5% with A2058 [4]; 94.1% in the data set with A2058 [5]; 106% in the data set on A2058 [7]; 92.9% in the data set on RD [8]. Besides, the viability at 100 µM with RD [9] amounted to 88.1%; in the data set with A2058 [10], 65.3%. The viability at 24 h, 100 µM in data set [2] was 75.7%. Also, in [6], the viability at 96 h, 100 µM came out at 77.3%. In data set [11], the viability at 48 h, 100 µM was 83.1%. In addition, in data set [12], the viability at 72 h, 100 µM is 74.5%.

For `CCOC(=O)N1c2ccccc2N(C(=O)OCC)C1CC(=O)c1ccc(O)cc1`, the viability at 100 µM in the data set on RD [1] turned out to be 13.6%; in the data set with RD [3], 27.3%; with A2058 [4], 9.3%; in the data set with A2058 [5] it was 35.3%; with A2058 [7], 12.1%; in the data set with RD [8], 5.71%. In addition, the viability at 100 µM with RD [9] came out at 3.57%; in the data set with A2058 [10], 6.12%. Also, in [2], the viability at 24 h, 100 µM came to 29.7%. In addition, the viability at 96 h, 100 µM in data set [6] stood at 4.55%. Further, the viability at 48 h, 100 µM in data set [11] was 11.7%. The viability at 72 h, 100 µM in [12] was 7.27%.

On to `CCOC(=O)N1c2cc(C)c(C)cc2N(C(=O)OCC)C1CC(=O)c1ccc(OC)cc1`, for which the viability at 100 µM is 43.2% in the data set with RD [1]; 31.2% with RD [3]; 38.4% in the data set with A2058 [4]; 55.9% with A2058 [5]; 54.5% with A2058 [7]; 58.6% in the data set on RD [8]. The figures for the viability at 100 µM in the data set with RD [9] and with A2058 [10] were 57.1% and 33.7%, respectively. In addition, the viability at 24 h, 100 µM in [2] was 75.7%. Also, the viability at 96 h, 100 µM in data set [6] is 65.9%. Also, the viability at 48 h, 100 µM in data set [11] came to 49.4%. Also, in data set [12], the viability at 72 h, 100 µM stood at 63.6%.

On to `CCOC(=O)N1c2cc(C)c(C)cc2N(C(=O)OCC)C1CC(C)=O`, for which the viability at 100 µM stood at 40.9% in the data set on RD [1]; 31.2% in the data set with RD [3]; 69.8% in the data set with A2058 [4]; 82.3% in the data set with A2058 [5]; 57.6% in the data set with A2058 [7]; 24.3% in the data set on RD [8]. For the same compound, the viability at 100 µM in the data set on RD [9] is 17.9%; with A2058 [10] it was 70.4%. Besides, the viability at 24 h, 100 µM in data set [2] was determined as 111%. The viability at 96 h, 100 µM in data set [6] was 39.4%. The viability at 48 h, 100 µM in [11] stood at 31.2%. Moreover, in data set [12], the viability at 72 h, 100 µM stood at 15.4%.

Turning to `CCOC(=O)N1c2ccccc2N(C(=O)OCC)C1CC(C)=O`, the viability at 100 µM in the data set with RD [1], in the data set with RD [3], with A2058 [4], with A2058 [5], with A2058 [7] and in the data set with RD [8] was 0% throughout. Besides, the viability at 100 µM in the data set with RD [9] and in the data set on A2058 [10] was 0% throughout. The viability at 24 h, 100 µM in data set [2] was 0%. Also, the viability at 96 h, 100 µM in [6] came to 0%. Also, the viability at 48 h, 100 µM in data set [11] is 0%. In addition, in [12], the viability at 72 h, 100 µM turned out to be 0%.
